Experimental data from ChEMBL document CHEMBL1156685, “Synthesis and structure-activity relationships of N-6 substituted analogues of 9-hydroxy-4-phenylpyrrolo[3,4-c]carbazole-1,3(2H,6H)-diones as inhibitors of Wee1 and Chk1 checkpoint kinases” (Eur J Med Chem, 2008).
Converted amounts (≈) assume the structure as drawn.

Assays:
[1] = target: Proto-oncogene tyrosine-protein kinase Src (Homo sapiens, UniProt P12931)
[2] = target: Cyclin-dependent kinase 1/cyclin B1 (Homo sapiens, UniProt P06493); assay type: cell-based, HT-29
Sequence of Cyclin-dependent kinase 1/cyclin B1 (P06493 whole entry): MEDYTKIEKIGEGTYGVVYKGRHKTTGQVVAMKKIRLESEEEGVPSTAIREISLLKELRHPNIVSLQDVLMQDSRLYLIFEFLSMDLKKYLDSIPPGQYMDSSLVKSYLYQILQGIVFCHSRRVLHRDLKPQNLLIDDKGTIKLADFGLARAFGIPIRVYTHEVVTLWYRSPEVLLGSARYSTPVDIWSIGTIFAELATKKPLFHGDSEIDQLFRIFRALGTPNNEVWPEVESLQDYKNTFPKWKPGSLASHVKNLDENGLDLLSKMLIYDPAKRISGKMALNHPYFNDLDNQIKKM
Sequence of Cyclin-dependent kinase 1/cyclin B1 (P14635 whole entry, further chain): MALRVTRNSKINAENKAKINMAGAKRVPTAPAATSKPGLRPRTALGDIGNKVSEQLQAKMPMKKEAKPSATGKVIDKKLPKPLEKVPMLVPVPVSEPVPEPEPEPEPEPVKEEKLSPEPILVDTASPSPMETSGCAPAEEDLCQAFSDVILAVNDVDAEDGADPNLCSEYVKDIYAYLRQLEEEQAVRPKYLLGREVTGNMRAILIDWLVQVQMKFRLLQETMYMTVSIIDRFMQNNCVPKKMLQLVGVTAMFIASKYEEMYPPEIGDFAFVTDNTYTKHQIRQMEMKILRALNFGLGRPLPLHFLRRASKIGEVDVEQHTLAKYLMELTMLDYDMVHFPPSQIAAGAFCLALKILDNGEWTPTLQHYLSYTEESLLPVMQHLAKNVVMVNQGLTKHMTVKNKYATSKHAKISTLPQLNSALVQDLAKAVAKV
Description: Inhibition of Cdc2/cyclin B assessed as inhibition of histone H1 phosphorylation in human HT29 cells

physchem = conditions: buffer
Description: Aqueous solubility of the compound

Wee1-like protein kinase = Wee1-like protein kinase (Homo sapiens, UniProt P30291)
Sequence of Wee1-like protein kinase (P30291 whole entry): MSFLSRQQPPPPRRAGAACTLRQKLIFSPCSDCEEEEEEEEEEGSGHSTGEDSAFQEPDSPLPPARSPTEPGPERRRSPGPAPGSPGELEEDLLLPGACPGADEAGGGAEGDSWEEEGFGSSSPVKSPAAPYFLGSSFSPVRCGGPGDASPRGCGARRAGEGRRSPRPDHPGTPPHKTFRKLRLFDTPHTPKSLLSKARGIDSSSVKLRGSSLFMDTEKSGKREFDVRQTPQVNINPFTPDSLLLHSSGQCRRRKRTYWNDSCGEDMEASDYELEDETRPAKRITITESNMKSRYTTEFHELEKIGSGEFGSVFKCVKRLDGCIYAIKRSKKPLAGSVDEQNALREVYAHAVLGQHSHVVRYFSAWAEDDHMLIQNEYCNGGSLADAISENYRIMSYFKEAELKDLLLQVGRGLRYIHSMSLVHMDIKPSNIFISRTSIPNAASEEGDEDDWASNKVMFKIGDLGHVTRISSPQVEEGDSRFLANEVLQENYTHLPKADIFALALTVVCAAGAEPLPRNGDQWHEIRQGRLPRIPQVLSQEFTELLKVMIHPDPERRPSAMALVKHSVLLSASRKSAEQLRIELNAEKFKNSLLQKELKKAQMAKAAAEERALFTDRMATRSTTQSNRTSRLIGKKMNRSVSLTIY
Description: Inhibition of human Wee1 assessed as polyornithine-tyrosine copolymer phosphorylation

[3] = target: Cyclin-dependent kinase 1 (Homo sapiens, UniProt P06493); assay type: cell-based; conditions: ht-29
Sequence of Cyclin-dependent kinase 1 (P06493 whole entry): as the sequence (P06493 whole entry) above
Description: Inhibition of Cdc2 Tyr15 phosphorylation in human HT29 cells by Western blot

Sequence of Proto-oncogene tyrosine-protein kinase Src (P12931 2-536 limits assumed): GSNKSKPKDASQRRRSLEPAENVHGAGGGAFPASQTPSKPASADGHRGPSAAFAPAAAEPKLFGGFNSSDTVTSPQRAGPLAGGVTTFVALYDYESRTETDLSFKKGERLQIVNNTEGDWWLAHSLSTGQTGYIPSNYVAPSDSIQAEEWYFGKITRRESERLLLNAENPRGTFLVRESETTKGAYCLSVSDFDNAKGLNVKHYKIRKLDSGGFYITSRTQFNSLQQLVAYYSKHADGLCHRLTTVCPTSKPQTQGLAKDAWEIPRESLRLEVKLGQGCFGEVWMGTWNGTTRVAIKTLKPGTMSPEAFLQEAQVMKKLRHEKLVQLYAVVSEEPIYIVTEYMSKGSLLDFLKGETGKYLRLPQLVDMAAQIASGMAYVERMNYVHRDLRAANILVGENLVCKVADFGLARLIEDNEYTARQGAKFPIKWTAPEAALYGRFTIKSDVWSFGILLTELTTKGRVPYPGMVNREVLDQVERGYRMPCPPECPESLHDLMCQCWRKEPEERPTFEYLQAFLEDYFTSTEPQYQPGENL

| Structure (SMILES) | IC50 [1] [nM] | solubility (physchem) [µg/mL] | IC50 [2] [nM] | IC50 (Wee1-like protein kinase) [nM] | IC50 [3] [nM] |
| --- | --- | --- | --- | --- | --- |
| O=C1NC(=O)c2c1c(-c1ccccc1Cl)cc1[nH]c3ccc(O)cc3c21 | > 50000 | – | – | – | – |
| CN1CCN(CCCn2c3ccc(O)cc3c3c4c(c(-c5c(Cl)cccc5Cl)cc32)C(=O)NC4=O)CC1 | – | – | – | 62 | – |
| O=C1NC(=O)c2c1c(-c1ccccc1)cc1c2c2cc(O)ccc2n1CCCNc1ccccc1 | – | – | – | 93 | – |
| CNCCCn1c2ccc(O)cc2c2c3c(c(-c4c(Cl)cccc4Cl)cc21)C(=O)NC3=O | – | 7.3 (≈ 15.6 µM) | – | 110 | – |
| CN(C)CCCn1c2ccc(O)cc2c2c3c(c(-c4ccccc4Cl)cc21)C(=O)NC3=O | – | – | – | 100 | – |
| CNCCCn1c2ccc(O)cc2c2c3c(c(-c4ccccc4)cc21)C(=O)NC3=O | – | – | – | 280 | – |
| O=C1NC(=O)c2c1c(-c1ccccc1Cl)cc1c2c2cc(O)ccc2n1CCCNc1ccccc1 | – | – | – | 74 | – |
| O=C(O)CCn1c2ccc(O)cc2c2c3c(c(-c4c(Cl)cccc4Cl)cc21)C(=O)NC3=O | – | 33 (≈ 70.3 µM) | – | 390 | – |
| CS(=O)(=O)NC(=O)CCn1c2ccc(O)cc2c2c3c(c(-c4ccccc4Cl)cc21)C(=O)NC3=O | – | > 60 | > 3400 | 12 | 250 |
| CN(C)CCNC(=O)CCn1c2ccc(O)cc2c2c3c(c(-c4c(Cl)cccc4Cl)cc21)C(=O)NC3=O | – | > 60 | – | 14 | – |
| O=C1NC(=O)c2c1c(-c1c(Cl)cccc1Cl)cc1c2c2cc(O)ccc2n1CCCNc1ccccc1 | – | – | – | 67 | – |
| CN(C)CCNC(=O)CCn1c2ccc(O)cc2c2c3c(c(-c4ccccc4Cl)cc21)C(=O)NC3=O | – | > 60 | 1300 | 35 | < 250 |
| NC(=O)CCn1c2ccc(O)cc2c2c3c(c(-c4c(Cl)cccc4Cl)cc21)C(=O)NC3=O | – | < 3 | – | 330 | – |
| O=C1NC(=O)c2c1c(-c1ccccc1)cc1c2c2cc(O)ccc2n1CCO | – | – | – | 25 | – |
| O=C1NC(=O)c2c1c(-c1c(Cl)cccc1Cl)cc1c2c2cc(O)ccc2n1CCCO | – | < 3 | – | 7 | – |
| O=C1NC(=O)c2c1c(-c1ccccc1Cl)cc1c2c2cc(O)ccc2n1CCCc1nnn[nH]1 | – | > 60 | > 3400 | 16 | > 10000 |
| NC(=O)CCn1c2ccc(O)cc2c2c3c(c(-c4ccccc4Cl)cc21)C(=O)NC3=O | – | – | > 3400 | 6 | > 10000 |
| O=C1NC(=O)c2c1c(-c1ccccc1Cl)cc1c2c2cc(O)ccc2n1CCCn1ccnc1 | – | – | – | 54 | – |
| O=C1NC(=O)c2c1c(-c1c(Cl)cccc1Cl)cc1c2c2cc(O)ccc2n1CCCN1CCOCC1 | – | – | – | 64 | – |

| Structure (SMILES) | IC50 [1] [nM] | solubility (physchem) [µg/mL] | IC50 [2] [nM] | IC50 (Wee1-like protein kinase) [nM] | IC50 [3] [nM] |
| --- | --- | --- | --- | --- | --- |
| CN(C)CCn1c2ccc(O)cc2c2c3c(c(-c4ccccc4Cl)cc21)C(=O)NC3=O | – | 8.5 (≈ 19.6 µM) | – | 96 | – |
| CN(C)CCn1c2ccc(O)cc2c2c3c(c(-c4c(Cl)cccc4Cl)cc21)C(=O)NC3=O | – | 7.4 (≈ 15.8 µM) | – | 170 | – |
| COC(=O)CCn1c2ccc(O)cc2c2c3c(c(-c4ccccc4Cl)cc21)C(=O)NC3=O | – | < 3 | – | 30 | – |
| COCCCn1c2ccc(O)cc2c2c3c(c(-c4ccccc4Cl)cc21)C(=O)NC3=O | – | < 3 | – | 27 | – |
| CN1CCN(CCCn2c3ccc(O)cc3c3c4c(c(-c5ccccc5Cl)cc32)C(=O)NC4=O)CC1 | – | – | – | 82 | – |
| CN(C)CCCn1c2ccc(O)cc2c2c3c(c(-c4ccccc4)cc21)C(=O)NC3=O | 5600 | – | – | 360 | – |
| CN(C)CCCn1c2ccc(O)cc2c2c3c(c(-c4c(Cl)cccc4Cl)cc21)C(=O)NC3=O | – | – | – | 140 | – |
| CNCCCn1c2ccc(O)cc2c2c3c(c(-c4ccccc4Cl)cc21)C(=O)NC3=O | – | 5.2 (≈ 12 µM) | 710 | 69 | < 250 |
| N#CCCn1c2ccc(O)cc2c2c3c(c(-c4ccccc4Cl)cc21)C(=O)NC3=O | – | < 3 | > 3400 | 15 | < 250 |
| O=C1NC(=O)c2c1c(-c1ccccc1Cl)cc1c2c2cc(O)ccc2n1CCO | – | < 3 | – | 45 | – |
| O=C(O)CCCn1c2ccc(O)cc2c2c3c(c(-c4ccccc4Cl)cc21)C(=O)NC3=O | – | – | > 3400 | 13 | > 10000 |
| O=C1NC(=O)c2c1c(-c1ccccc1Cl)cc1c2c2cc(O)ccc2n1CCc1nnn[nH]1 | – | > 60 | > 3400 | 21 | 2500 |
| O=C(CCn1c2ccc(O)cc2c2c3c(c(-c4ccccc4Cl)cc21)C(=O)NC3=O)NS(=O)(=O)c1ccccc1 | – | 47 (≈ 81.9 µM) | – | 7 | – |
| CNCC(O)Cn1c2ccc(O)cc2c2c3c(c(-c4ccccc4Cl)cc21)C(=O)NC3=O (configuration not stated) | – | – | – | 57 | – |
| CN(C)CCNC(=O)CCn1c2ccc(O)cc2c2c3c(c(-c4ccccc4)cc21)C(=O)NC3=O | – | > 60 | – | – | – |
| O=C1NC(=O)c2c1c(-c1ccccc1)cc1c2c2cc(O)ccc2n1CCCn1ccnc1 | – | < 3 | – | 110 | – |
| O=C1NC(=O)c2c1c(-c1c(Cl)cccc1Cl)cc1c2c2cc(O)ccc2n1CCN1CCOCC1 | – | – | – | 110 | – |
| N#CCCCn1c2ccc(O)cc2c2c3c(c(-c4ccccc4Cl)cc21)C(=O)NC3=O | – | – | – | 33 | – |
| O=C1NC(=O)c2c1c(-c1ccccc1Cl)cc1c2c2cc(O)ccc2n1CCn1ccnc1 | – | – | – | 92 | – |

The next lines start with results.

| IC50 [1] [nM] | solubility (physchem) [µg/mL] | Structure (SMILES) | IC50 [2] [nM] | IC50 (Wee1-like protein kinase) [nM] | IC50 [3] [nM] |
| --- | --- | --- | --- | --- | --- |
| – | < 3 | O=C1NC(=O)c2c1c(-c1ccccc1Cl)cc1c2c2cc(O)ccc2n1CCCO | 650 | – | – |
| – | 3.2 (≈ 6.33 µM) | O=C1NC(=O)c2c1c(-c1c(Cl)cccc1Cl)cc1c2c2cc(O)ccc2n1CCCn1ccnc1 | – | 59 | – |
| 17000 | 28 (≈ 59.8 µM) | CN1CCN(CCCn2c3ccc(O)cc3c3c4c(c(-c5ccccc5)cc32)C(=O)NC4=O)CC1 | – | 300 | – |
| – | > 60 | O=C(O)CCn1c2ccc(O)cc2c2c3c(c(-c4ccccc4Cl)cc21)C(=O)NC3=O | – | – | – |
| 13000 | > 60 | O=C(O)CCn1c2ccc(O)cc2c2c3c(c(-c4ccccc4)cc21)C(=O)NC3=O | – | – | – |
| – | < 3 | O=C1NC(=O)c2c1c(-c1ccccc1)cc1c2c2cc(O)ccc2n1CCCO | – | 200 | – |
| – | < 3 | O=C1NC(=O)c2c1c(-c1c(Cl)cccc1Cl)cc1c2c2cc(O)ccc2n1CCO | – | – | – |
| – | 18 (≈ 35.6 µM) | O=C1NC(=O)c2c1c(-c1ccccc1Cl)cc1c2c2cc(O)ccc2n1CC[S+]([O-])c1nnc[nH]1 (configuration not stated) | – | 9 | – |
| – | 16 (≈ 30.7 µM) | O=C1NC(=O)c2c1c(-c1ccccc1Cl)cc1c2c2cc(O)ccc2n1CCS(=O)(=O)c1nnc[nH]1 | – | 19 | – |
| 27000 | – | O=C1NC(=O)c2c1c(-c1ccccc1)cc1c2c2cc(O)ccc2n1CCn1ccnc1 | – | – | – |
| – | < 3 | O=C1NC(=O)c2c1c(-c1c(Cl)cccc1Cl)cc1c2c2cc(O)ccc2n1CCn1ccnc1 | – | 120 | – |
| 46000 | < 3 | O=C1NC(=O)c2c1c(-c1ccccc1)cc1c2c2cc(O)ccc2n1CCCN1CCOCC1 | – | 290 | – |
| – | < 3 | NC(=O)CCn1c2ccc(O)cc2c2c3c(c(-c4ccccc4)cc21)C(=O)NC3=O | – | 21 | – |
| – | < 3 | COc1ccccc1-c1cc2c(c3c1C(=O)NC3=O)c1cc(O)ccc1n2CCCO | – | – | – |
| – | 3 (≈ 6.12 µM) | O=C1NC(=O)c2c1c(-c1ccccc1Cl)cc1c2c2cc(O)ccc2n1CCSc1nnc[nH]1 | – | 24 | – |
| – | > 60 | CN(C)CC(O)Cn1c2ccc(O)cc2c2c3c(c(-c4ccccc4Cl)cc21)C(=O)NC3=O (configuration not stated) | > 3400 | 58 | 250 |
| 31000 | 18 (≈ 45.1 µM) | CN(C)CCn1c2ccc(O)cc2c2c3c(c(-c4ccccc4)cc21)C(=O)NC3=O | – | 200 | – |
| 2500 | 12 (≈ 27.5 µM) | O=C1NC(=O)c2c1c(-c1ccccc1Cl)cc1c2c2cc(O)ccc2n1CC(O)CO (configuration not stated) | – | 23 | – |
| – | 14 (≈ 31.7 µM) | O=C1NC(=O)c2c1c(-c1ccccc1)cc1c2c2cc(O)ccc2n1CCN1CCOCC1 | – | 140 | – |
| – | < 3 | O=C1NC(=O)c2c1c(-c1ccccc1Cl)cc1c2c2cc(O)ccc2n1CCN1CCOCC1 | 1700 | 64 | 250 |
